# According to article PMC11449324, “Functional comparison of human and murine equilibrative nucleobase transporter 1” (PLOS ONE, 2024):
# Target: T1, endogenous ENBT1 expressed in L1210 cells (Mus musculus, UniProt A2AVZ9)
# T1 construct: MOLT-4 cells express the SLC43A3 transcript and L1210 cells express the slc43a3 transcript; host or cells: L1210
# T1 sequence (A2AVZ9 1-502): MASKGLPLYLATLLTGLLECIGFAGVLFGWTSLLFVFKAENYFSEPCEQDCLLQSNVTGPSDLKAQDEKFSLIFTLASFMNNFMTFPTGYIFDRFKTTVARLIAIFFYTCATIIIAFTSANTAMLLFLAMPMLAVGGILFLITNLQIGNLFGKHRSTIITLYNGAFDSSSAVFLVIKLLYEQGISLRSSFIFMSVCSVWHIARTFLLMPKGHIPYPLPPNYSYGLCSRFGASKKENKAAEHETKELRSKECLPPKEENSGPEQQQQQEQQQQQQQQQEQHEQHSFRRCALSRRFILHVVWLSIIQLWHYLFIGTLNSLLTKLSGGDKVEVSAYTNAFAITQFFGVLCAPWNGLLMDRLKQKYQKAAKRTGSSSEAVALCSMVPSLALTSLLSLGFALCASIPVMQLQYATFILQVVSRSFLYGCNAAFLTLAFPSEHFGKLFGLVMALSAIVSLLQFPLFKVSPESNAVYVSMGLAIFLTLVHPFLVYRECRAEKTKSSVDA
# Test: [3H]6-MP uptake in L1210 cells
# Assay type: cell-based, murine
# Conditions: 30 μM [3H]6-MP
# Description: Harvested cells were suspended in nominally sodium-free N-methyl-D-glucamine (NMG) buffer (140 mM NMG, 5 mM KCl, 4.2 mM KHCO3, 0.36 mM K2HPO4, 0.44 mM KH2PO4, 0.5 mM MgCl2, 1.3 mM CaCl2, 10 mM HEPES, pH 7.4), to minimize potential contribution of sodium-dependent concentrative nucleoside transporter-mediated uptake. Additionally, cells were incubated for 15 minutes at room temperature with 10 μM dipyridamole (DY), an equilibrative nucleoside transporter (ENT) inhibitor, to block equilibrative nucleoside transporter–mediated uptake. The substrate uptake assay was initiated by adding 250 μL cell suspension to 250 μL [^3H] labeled substrate, layered over 21:4 silicone:mineral oil (200 μL) in 1.5 mL microcentrifuge tubes (conducted at room temperature). […] This is the minimum incubation time achievable with this oil-stop technique, and it was found in previous studies that these short incubation times were necessary to assess the kinetics of this transporter. […] The resulting cell pellet was digested in 250 μL 1 M NaOH overnight (~16 hours), with 220 μL aliquots of digested cells assessed for radioactive content using standard liquid scintillation counting techniques in a Beckman Coulter LS6500 scintillation system (Brea, CA).
# In transfected-HEK293 cell lines, total uptake was defined as uptake of radiolabeled substrate in cells overexpressing recombinant hENBT1 or mENBT1. […] ENBT1-mediated uptake was calculated as total uptake minus the non-mediated uptake.
# Cell water volume (μL) was estimated by incubating cells with ^3H2O for 3 minutes, centrifuging the cells through the oil layer at ~10,000 g, assessing 100 μL of the supernatant for radioactive content, and then processing as described above. Total cellular water volume was determined from the ratio of the decays per minute of the cell pellet, to the decays per minute of the supernatant, allowing for inter-experimental normalization via calculation of picomoles of substrate accumulated per microliter of cell-associated water.
k value of time-dependent uptake [s⁻¹],uptake plateau,effect on uptake of [3H]6-MP (5 mM adenine),SMILES
0.22 ± 0.05,roughly 30 pmol/μL,,"Sc1ncnc2nc[nH]c12 [6-MP, 6-Mercaptopurine]"
,,significantly inhibited,"Nc1ncnc2[nH]cnc12 [adenine, Adenine]"
